Each structure is given as a SMILES string.

One data set has as its target human CB1 receptor (Homo sapiens, UniProt P21554). Nature of the data set: cell-based. The procedure: The compounds according to the invention were the subject of pharmacological tests for determining the activity with respect to human cannabinoid CB1-type receptors. The efficacy of the compounds of formula (I) was determined in a functional test which measures cannabinoid CB1 receptor activity (intracellular cyclic AMP test). The test for detecting intracellular cyclic AMP in U373MG cells naturally expressing the human CB1 receptor was carried out as described in the reference: Bouaboula et al., 1995, J. Biol. Chem. 270:13973-13980. The HTRF cAMP Dynamic Kit from CisBio was used to quantify the intracellular cyclic AMP.

Data set [1] addresses T1, cannabinoid CB1-type receptor (Mus musculus, UniProt P47746).
T1 construct: male CD1 mice received the test product per os; from tissue; host or cells: whole animal, male CD1 mice
The data set is described as follows: inhibition of gastrointestinal transit induced by racemic CP55,940 in mice. It counts as in vivo. The following applies: 1 mg/kg per os; 3 hours after administration of the product; male CD1 mice; CP55,940 0.15 mg/kg ip. The method, then:
After a further 30 minutes, the animals received a charcoal bolus po. Thirty minutes later, the animals are sacrificed by euthanasia (CO2/O2) and the intestine is dissected. The progression of the charcoal bolus in the intestine is expressed as percentage of the total length of the intestine.

The target of the next data set is cannabinoid CB receptor (Mus musculus, UniProt P47746). Nature of the data set: hypothermia induced by cannabinoid CB receptor agonist CP55,940 in mice. The following applies: 3 mg/kg po; male CD1 mice; CP55,940 1.25 mg/kg i.p.; rectal temperature at 90 minutes.
Sequence of cannabinoid CB receptor (P47746 whole entry): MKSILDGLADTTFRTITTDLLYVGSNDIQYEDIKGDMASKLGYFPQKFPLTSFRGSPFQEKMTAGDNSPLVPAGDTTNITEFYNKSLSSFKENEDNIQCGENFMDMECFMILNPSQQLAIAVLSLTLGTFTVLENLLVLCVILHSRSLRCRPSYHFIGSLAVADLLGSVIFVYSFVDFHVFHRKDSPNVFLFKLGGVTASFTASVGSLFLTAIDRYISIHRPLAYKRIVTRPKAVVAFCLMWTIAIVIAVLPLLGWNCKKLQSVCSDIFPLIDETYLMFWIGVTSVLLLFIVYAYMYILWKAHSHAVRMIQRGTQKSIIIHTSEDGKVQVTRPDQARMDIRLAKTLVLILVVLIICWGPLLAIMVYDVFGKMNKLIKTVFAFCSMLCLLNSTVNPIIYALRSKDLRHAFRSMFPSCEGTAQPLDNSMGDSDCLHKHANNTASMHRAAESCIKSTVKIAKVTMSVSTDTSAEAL

Sequence of human CB1 receptor (P21554 whole entry): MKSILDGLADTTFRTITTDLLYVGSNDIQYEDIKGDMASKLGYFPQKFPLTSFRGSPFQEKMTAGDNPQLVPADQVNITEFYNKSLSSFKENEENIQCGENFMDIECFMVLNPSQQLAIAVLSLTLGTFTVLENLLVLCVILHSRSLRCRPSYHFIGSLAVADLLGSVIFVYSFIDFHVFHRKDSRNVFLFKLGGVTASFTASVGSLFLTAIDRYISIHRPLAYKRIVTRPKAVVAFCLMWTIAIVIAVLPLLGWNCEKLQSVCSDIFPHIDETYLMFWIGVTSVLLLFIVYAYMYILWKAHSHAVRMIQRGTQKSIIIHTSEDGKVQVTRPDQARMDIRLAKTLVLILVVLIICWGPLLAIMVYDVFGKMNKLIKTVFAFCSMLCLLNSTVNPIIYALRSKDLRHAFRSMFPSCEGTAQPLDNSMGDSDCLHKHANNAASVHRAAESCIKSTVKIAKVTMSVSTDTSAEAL
T1 sequence (P47746 whole entry): as the sequence (P47746 whole entry) above
Procedure for cannabinoid CB receptor: At time 0 min, the rectal temperature of male CD1 mice is measured before injection of the test product. At 30 minutes, a further measurement of the rectal temperature of the mice is taken and the racemic CP55,940 agonist ORS, 3RS, 4RS-3-[hydroxy-2-(1,1-dimethylheptyl)phenyl]-4-(3-hydroxypropyl)cyclohexan-1-ol) (1.25 mg/kg i.p. in 10% cremophor) is administered. At 90 minutes, the rectal temperature is again taken. The results are expressed as % relative to the control batch injected with the CP55,940 (minimum temperature) and to the carrier batch without CP55,940 treatment (maximum temperature).

Take `C[C@H](NC(=O)c1cccc(N(C2CN(C(c3ccc(Cl)cc3)c3ccc(Cl)cc3)C2)S(C)(=O)=O)c1)C(N)=O`: half-maximal inhibition at human CB1 receptor (IC50) required 43 nM. For the same compound, the “percentages of inhibition (gastrointestinal transit model)” value in data set [1] is given as 39.2%. For the same compound, the “percentages of inhibition of the decrease in temperature induced by the agonist” value at cannabinoid CB receptor was determined as 5%.

In turn, `C[C@H](NC(=O)c1cc(F)cc(N(C2CN(C(c3ccc(Cl)cc3)c3ccc(Cl)cc3)C2)S(C)(=O)=O)c1)C(N)=O` came in with an IC50 against human CB1 receptor of 9 nM. Besides, the “percentages of inhibition (gastrointestinal transit model)” value in data set [1] is reported as 49%.

The compound `C[C@@H](NC(=O)c1cc(F)cc(N(C2CN(C(c3ccc(Cl)cc3)c3ccc(Cl)cc3)C2)S(C)(=O)=O)c1)C(N)=O` came in with an IC50 against human CB1 receptor of 284 nM.

`COc1cc(NS(=O)(=O)CC2CN(C(c3ccc(Cl)cc3)c3ccc(Cl)cc3)C2)cc(C(=O)N[C@@H](C)C(N)=O)c1` (hydrate or solvate) [compound 22, 3-({1-[bis(4-chlorophenyl)methyl]azetidin-3-yl}methanesulphonylamino)-N—((S)-1-carbamoylethyl)-5-methoxybenzamide] registered a melting point of 183 to 185 °C.

With `C[C@H](NC(=O)c1cccc(NS(=O)(=O)CC2CN(C(c3ccc(Cl)cc3)c3ccc(Cl)cc3)C2)c1)C(N)=O` [Compound No. 1, 3-({1-[bis(4-chlorophenyl)methyl]azetidin-3-yl}methanesulphonylamino)-N—((S)-1-carbamoylethyl)benzamide], the melting point stood at 229 °C.

In turn, `NC(=O)CNC(=O)c1cc(F)cc(NS(=O)(=O)CC2CN(C(c3ccc(Cl)cc3)c3ccc(Cl)cc3)C2)c1` [Compound No. 2, 3-({1-[bis(4-chlorophenyl)methyl]azetidin-3-yl}methanesulphonylamino)-N-carbamoylmethyl-5-fluorobenzamide] returned a melting point of 154 to 156 °C.

With `C[C@H](NC(=O)c1cc(F)cc(NS(=O)(=O)CC2CN(C(c3ccc(Cl)cc3)c3ccc(Cl)cc3)C2)c1)C(N)=O` [Compound No. 3, 3-({1-[Bis(4-chlorophenyl)methyl]azetidin-3-yl}methanesulphonylamino)-N—((S)-1-carbamoylethyl)-5-fluorobenzamide], the melting point lay in the range of 228 to 230 °C.

Compound `C[C@@H](NC(=O)c1cc(F)cc(NS(=O)(=O)CC2CN(C(c3ccc(Cl)cc3)c3ccc(Cl)cc3)C2)c1)C(N)=O` [Compound No. 4, 3-({1-[bis(4-chlorophenyl)methyl]azetidin-3-yl}methanesulphonylamino)-N—((R)-1-carbamoylethyl)-5-fluorobenzamide] returned a melting point of 219 to 221 °C.

`C[C@@H](NC(=O)c1cccc(NS(=O)(=O)CC2CN(C(c3ccc(Cl)cc3)c3ccc(Cl)cc3)C2)c1)C(N)=O` [Compound No. 5, 3-({1-[Bis(4-chlorophenyl)methyl]azetidin-3-yl}methanesulphonylamino)-N—((R)-1-carbamoylethyl)benzamide] registered a melting point of 235 °C.

The compound `NC(=O)CCNC(=O)c1cccc(NS(=O)(=O)CC2CN(C(c3ccc(Cl)cc3)c3ccc(Cl)cc3)C2)c1` [Compound No. 7, 3-({1-[bis(4-chlorophenyl)methyl]azetidin-3-yl}methanesulphonylamino)-N-(2-carbamoylethyl)benzamide] registered a melting point of 190 to 192 °C.

`O=C(NCC(=O)N1CCOCC1)c1cccc(NS(=O)(=O)CC2CN(C(c3ccc(Cl)cc3)c3ccc(Cl)cc3)C2)c1` [Compound No. 8, 3-({1-[bis(4-chlorophenyl)methyl]azetidin-3-yl}methanesulphonylamino)-N-(2-morpholin-4-yl-2-oxoethyl)benzamide] gave a melting point of 176 °C.

Turning to `CNC(=O)[C@H](C)NC(=O)c1cccc(NS(=O)(=O)CC2CN(C(c3ccc(Cl)cc3)c3ccc(Cl)cc3)C2)c1` [Compound No. 9, 3-({1-[bis(4-chlorophenyl)methyl]azetidin-3-yl}methanesulphonylamino)-N—((S)-1-methylcarbamoylethyl)benzamide], the melting point lay in the range of 171 to 173 °C.

For the compound `CC[C@H](NC(=O)c1cccc(NS(=O)(=O)CC2CN(C(c3ccc(Cl)cc3)c3ccc(Cl)cc3)C2)c1)C(N)=O` [compound 10, 3-({1-[bis(4-chlorophenyl)methyl]azetidin-3-yl}methanesulphonylamino)-N—((S)-1-carbamoylpropyl)benzamide], the melting point was 220 to 222 °C.

`NC(=O)[C@H](CO)NC(=O)c1cc(F)cc(NS(=O)(=O)CC2CN(C(c3ccc(Cl)cc3)c3ccc(Cl)cc3)C2)c1` [compound 13, 3-({1-[bis(4-chlorophenyl)methyl]azetidin-3-yl}methanesulphonylamino)-N—((S)-1-carbamoyl-2-hydroxyethyl)-5-fluorobenzamide]: the melting point lay within 212 to 214 °C.

In turn, `CC[C@H](NC(=O)c1cc(F)cc(NS(=O)(=O)CC2CN(C(c3ccc(Cl)cc3)c3ccc(Cl)cc3)C2)c1)C(N)=O` [compound 14, 3-({1-[bis(4-chlorophenyl)methyl]azetidin-3-yl}methanesulphonylamino)-N—((S)-1-carbamoylpropyl)-5-fluorobenzamide] gave a melting point of 212 to 214 °C.

As to `CNC(=O)CNC(=O)c1cccc(NS(=O)(=O)CC2CN(C(c3ccc(Cl)cc3)c3ccc(Cl)cc3)C2)c1` [compound 15, 3-({1-[bis(4-chlorophenyl)methyl]azetidin-3-yl}methanesulphonylamino)-N-(methylcarbamoylmethyl)benzamide], the melting point came out at 216 °C.

For the compound `NC(=O)CNC(=O)c1cccc(NS(=O)(=O)CC2CN(C(c3ccc(Cl)cc3)c3ccc(Cl)cc3)C2)c1` [compound 16, 3-({1-[bis(4-chlorophenyl)methyl]azetidin-3-yl}methanesulphonylamino)-N-(carbamoylmethyl)benzamide], the melting point is 196 to 198 °C.

As for `CNC(=O)[C@H](C)NC(=O)c1cc(F)cc(NS(=O)(=O)CC2CN(C(c3ccc(Cl)cc3)c3ccc(Cl)cc3)C2)c1` [compound 26, 3-({1-[bis(4-chlorophenyl)methyl]azetidin-3-yl}methanesulphonylamino)-5-fluoro-N—((S)-1-methylcarbamoylethyl)benzamide], the melting point was 150 °C.

The compound `NC(=O)CCCNC(=O)c1cc(F)cc(NS(=O)(=O)CC2CN(C(c3ccc(Cl)cc3)c3ccc(Cl)cc3)C2)c1` [compound 28, 3-({1-[bis(4-chlorophenyl)methyl]azetidin-3-yl}methanesulphonylamino)-N-(3-carbamoylpropyl)-5-fluorobenzamide] showed a melting point of 186 °C.

On human CB1 receptor, `CC[C@H](NC(=O)c1ccc(F)c(N(C2CN(C(c3ccc(Cl)cc3)c3ccc(Cl)cc3)C2)S(C)(=O)=O)c1)C(N)=O` [compound 36] registered an IC50 of 952 nM.

For `Cc1cc(NS(=O)(=O)CC2CN(C(c3ccc(Cl)cc3)c3ccc(Cl)cc3)C2)cc(C(=O)N[C@@H](C)C(N)=O)c1` [compound 38, 3-({1-[bis(4-chlorophenyl)methyl]azetidin-3-yl}methanesulphonylamino)-N—((S)-1-carbamoylethyl)-5-methylbenzamide], the “percentages of inhibition of the decrease in temperature induced by the agonist” value at cannabinoid CB receptor is 17%.

Take `CC[C@H](NC(=O)c1cc(NS(=O)(=O)CC2CN(C(c3ccc(Cl)cc3)c3ccc(Cl)cc3)C2)cc(C(F)(F)F)c1)C(N)=O` [compound 55, 3-({1-[bis(4-chlorophenyl)methyl]azetidin-3-yl}methanesulphonylamino)-N—((S)-1-carbamoylpropyl)-5-trifluoromethylbenzamide]: the “percentages of inhibition (gastrointestinal transit model)” value in data set [1] is reported as 74%. The “percentages of inhibition of the decrease in temperature induced by the agonist” value on cannabinoid CB receptor is 28%.

`CC(C)[C@H](NC(=O)c1cc(N(C2CN(C(c3ccc(Cl)cc3)c3ccc(Cl)cc3)C2)S(C)(=O)=O)cc(C(F)(F)F)c1)C(N)=O` [compound 56] had an IC50 at human CB1 receptor of 41 nM.

`CNC(=O)[C@H](C)NC(=O)c1cc(NS(=O)(=O)CC2CN(C(c3ccc(Cl)cc3)c3ccc(Cl)cc3)C2)cc(C(F)(F)F)c1` [compound 57, 3-({1-[bis(4-chlorophenyl)methyl]azetidin-3-yl}methanesulphonylamino)-N—((S)-1-methylcarbamoylethyl)-5-trifluoromethylbenzamide]: in data set [1], the “percentages of inhibition (gastrointestinal transit model)” value is on record as 78%. On cannabinoid CB receptor, the “percentages of inhibition of the decrease in temperature induced by the agonist” value amounted to 21%.

For the compound `C[C@H](NC(=O)c1cc(N(C2CN(C(c3ccc(Cl)cc3)c3ccc(Cl)cc3)C2)S(C)(=O)=O)cc(C(F)(F)F)c1)C(=O)O` [compound 68], it took 24 nM to reach half-maximal inhibition against human CB1 receptor (IC50). The “percentages of inhibition (gastrointestinal transit model)” value in data set [1] is recorded as 7%.

As to `C[C@H](NC(=O)c1cc(F)cc(N(C2CN(C(c3ccc(Br)cc3)c3ccc(Br)cc3)C2)S(C)(=O)=O)c1)C(N)=O` [compound 70, 3-({1-[bis(4-bromophenyl)methyl]azetidin-3-yl}methanesulphonylamino)-N—((S)-1-carbamoylethyl)-5-fluorobenzamide], the IC50 at human CB1 receptor was determined as 31 nM. This counts as double-digit nanomolar.

Take `CCOC(=O)[C@H](C)NC(=O)c1cc(F)cc(N(C2CN(C(c3ccc(Cl)cc3)c3ccc(Cl)cc3)C2)S(C)(=O)=O)c1` [compound 79]: the IC50 at human CB1 receptor is 70 nM. This IC50 is about 2.3-fold higher than that of the compound before.

One may read the IC50 as the midpoint of a concentration-inhibition curve. A high value points to weaker potency in that assay. Broadly, the melting point is the temperature, or range, at which the solid turns liquid.

(Values after patent US8445478B2 (Sanofi, priority 2007, dated 2013).)
